Assay results taken from US9078843B2, “Immunogenic fragments of T-cell receptor constant domains and peptides derived therefrom” (priority 2005, dated 2015).

Legend:
IgM in sera = assay: Antigen microarray, serum IgM binding to TCR gamma constant region peptides; parameters: species or system human; settings: serum 1:5
Text: (§1) The antigenicity of peptides derived from human T-cell receptor gamma-chain constant region (accession no: AAB63314; SEQ ID NO:173) was essayed using antigen array technology, as detailed below.
(§2) Serum samples: Blood samples were obtained by random availability from 12 healthy adults and from 9 adults newly diagnosed with lung cancer, before treatment. All samples were collected with informed consent and approval of the Helsinki committee of the Sheba Medical Center, Tel Hashomer, Israel. The blood samples were allowed to clot at room temperature. After centrifugation, sera were collected and stored at −20° C.
(§3) Antigen microarray: Antigens diluted in PBS were placed in 384-well plates at a concentration of 1 μg/μl. We used a robotic MicroGrid arrayer with solid spotting pins of 0.2 mm in diameter (BioRobotics, Cambridge, U.K.) to spot the antigens onto ArrayIt SuperEpoxi microarray substrate slides (TeleChem, Sunnyvale, Calif.). the antigens were spotted in replicates of 4, and the microarrays were blocked for 1 h at 37° C. with 1% bovine serum albumin, and incubated under a cover-slip overnight at 4° C. with a 1:5 dilution of the test serum in blocking buffer. The quantitative range of signal intensity of binding to each antigen spot was 0.01-65,000, and this range of detection made it possible to record reliable data with little dilution of test samples. The arrays were then washed and incubated for 1 hour at 37° C. with a 1:500 dilution of detection antibodies. Two detection antibodies were used: a goat anti-human IgG Cy3-conjugated antibody and a goat anti-human IgM Cy5-conjugated antibody, purchased from Jackson ImmunoResearch, West Grove, Pa. The arrays were washed again, spin-dried, and scanned with a ScanArray 4000× scanner (GSI Luminomics, Billerica, Mass.). The results were recorded as TIFF files. Image acquisition by laser and quantification were done as described (Quintana et al., 2004).
(§4) Data preprocessing and background filtering: Antigen reactivity was defined by the mean intensity of the 4 replicates of binding to that antigen on the microarray. We identified positive antibodies in the following way: To establish the minimum level of significant antibody binding, we calculated the mean reactivity level of 32 spots incubated with phosphate buffered saline (PBS) in place of an antigen on each microarray slide. A signal was scored as positive when it expressed intensity greater than the upper limit of the PBS control, which was defined as the mean intensity of the PBS spots plus 2-times the standard deviation. Signal intensity above the PBS background was considered positive antibody binding.
(§5) The presence of IgG and IgM in sera obtained from patients with lung cancer and from healthy controls was determined using the antigen microarray, as detailed above. The results, presented in Table 13, represent the mean reactivity of 12 control subjects and 9 lung cancer subjects.

IgG in sera = assay: Antigen microarray, serum IgG binding to TCR gamma constant region peptides; parameters: species or system human; settings: for Antigen Binding (Mean Intensity) IgG: serum 1:5
Text: as §1, §2, §3, §4, §5

adjuvant arthritis (AA) = assay: Adjuvant arthritis (AA) after vaccination with recombinant proteins or peptides; format: in vivo, Lewis rats; settings: single ip dose of 100 μg protein or peptide in IFA, AA induced seven days later; FIG. 4
Procedure: AA was induced as described (Quintana et al 2002), using 1 mg per rat of heat-killed Mt strain H37Ra (Difco). Each experimental and control group contained at least 8 rats. The day of AA induction was designated as day 0, and disease severity was assessed by direct observation of all 4 limbs in each animal. A relative score between 0 and 4 was assigned to each limb, based on the degree of joint inflammation, redness and deformity; thus the maximum possible score for an individual animal was 16 (Quintana et al 2002). The mean AA score (±SEM) is shown for each experimental group. Arthritis was also quantified by measuring hind limb diameter with a caliper. Measurements were taken on the day of the induction of AA and 26 days later (at the peak of AA); the results are presented as the mean±SEM of the difference between the two values for all the animals in each group. The person who scored the disease was blinded to the identity of the groups. Experiments were repeated at least 3 times and produced similar results.
Female Lewis rats were immunized ip with a single dose of 100 μg of peptide or recombinant protein emulsified in IFA.
We studied the immune effects of vaccination with recombinant C1 (rβC1) or C2 (rβC2), or with C1/2-derived peptides (Table 1). Female Lewis rats were immunized with a single ip dose of 100 μg of protein or peptide in IFA, and seven days later AA was induced.

[1] = system: draining lymph node cells (LNC); assay: T-cell proliferation of lymph node cells from vaccinated rats ([methyl-3H]-thymidine, stimulation index); format: cell-based, Lewis rats; settings: for proliferative responses of LNC to PPD: LNC from peptide immunized rats; for T-cell responses of immunized rats to the immunizing peptide (immunogenicity): rats vaccinated with the peptide, FIG. 6B
Procedure: Unless otherwise stated, T-cell proliferation assays were performed at day 26 after the induction of AA, when the disease is at its peak, as previously described (Quintana et al 2002). Briefly, popliteal and inguinal lymph node cells (LNC), were cultured in quadruplicates in 200 μl round bottom microtiter wells (Costar Corp., Cambridge, USA) at 2×10^5 cells per well with or without antigen. The T-cell mitogen Concanavalin A (Con A) was used as a positive control for T-cell proliferation. Cultures were incubated for 96 hrs at 37° C. in a humidified atmosphere of 5% CO2. T-cell responses were detected by the incorporation of [methyl-3H]-thymidine (Amersham, Buckinghamshire, UK; 1 μCi/well), which was added to the wells for the last 18 hours. The stimulation index (SI) was computed as the ratio of the mean c.p.m. of antigen- or mitogen-containing wells to control wells cultured with medium alone. The results of T-cell proliferation experiments are shown as SI±SEM, T-cell responses with SI<2 were considered not significant.
To study the immune responses associated with the inhibition of AA by DNA vaccination with pβC1 or pβC2, we analyzed the T-cell responses of immunized rats 26 days after the induction of AA. We stimulated draining lymph node cells (LNC) in vitro with a collective of Mycobacterial antigens known to be associated with AA: HSP65, PPD and Mt176-190. The Mt176-190 peptide contains the 180-188 epitope of HSP65 described by van Eden et al which is recognized by HSP65-specific T-cell clones that can transfer AA (van Eden et al 1985). We also studied the immune response directed to recombinant βC1 and recombinant βC2, or to βC1/2 peptides predicted to bind the MHC class II molecule of the Lewis rat (see Table 1). Glutathione-S-transferase (GST) was included as a control antigen. […] 149 (MED12).
To study the effect of C1/2 vaccination on the immune response to C1/2 peptides and to the target antigens of AA, we vaccinated rats with rβC1 or rβC2, and then induced AA. At day 26, we removed the draining lymph nodes and measured the T-cell proliferative responses to peptides N12 (SEQ ID NO:147), MED12 (SEQ ID NO:149) or C2C (SEQ ID NO:152), or to the Mycobacterial antigens. […] Thus the C1/2 peptides are immunologically dominant.

[2] = HEALTHY CONTROLS, mean of 12 subjects
[3] = LUNG CANCER, mean of 9 subjects

Substance | Antigen Binding (Mean Intensity) IgM (IgM in sera; [2]) | Antigen Binding (Mean Intensity) IgM (IgM in sera; [3]) | Antigen Binding (Mean Intensity) IgG (IgG in sera; [2]) | Antigen Binding (Mean Intensity) IgG (IgG in sera; [3]) | response of antibodies to the peptide (IgG in sera; antibodies from control subjects) | severity of the disease (AA score) (adjuvant arthritis (AA)) | proliferative responses of LNC to PPD ([1]; FIG. 6A) | proliferative responses of LNC to mt180 and HSP65 ([1]; LNC from peptide-vaccinated rats, FIG. 6A) | T-cell responses of immunized rats to the immunizing peptide (immunogenicity) [1]
VVYFAIITCCLLRRTAFCCN [SEQ ID NO:167] | 548 | 512 | 376 | 1928 |  |  |  |  | 
KAGTYLCLLEKFFPDVIKI [SEQ ID NO:158] | 1753 | 2381 | 2233 | 2116 | responded |  |  |  | 
vlvsalvlmamvkkkns (VLVSALVLMAMVKKKNS; listed as Rattus norvegicus) [C2C] |  |  |  |  |  | significantly decreased | increased proliferative responses | increased proliferative responses | significant T-cell responses
KPTIFLPSSWLTVPE [SEQ ID NO:164] | −24 | 86 | −240 | −114 |  |  |  |  | 
AYYMYLLLLLKSVVYFAIIT [SEQ ID NO:166] | 87 | 140 | 199 | 996 |  |  |  |  | 
dspkpvtqnisaeawgr (DSPKPVTQNISAEAWGR; listed as Rattus norvegicus) [MED12] |  |  |  |  |  | significantly decreased | increased proliferative responses |  | significant T-cell responses
vtppkvslfepseaeia (VTPPKVSLFEPSEAEIA; listed as Rattus norvegicus) [N12] |  |  |  |  |  | significantly decreased | increased proliferative responses |  | significant T-cell responses
DQEIIFPPIKT [SEQ ID NO:161] | 86 | 160 | −147 | 846 |  |  |  |  | 
KEHRCIVDTLLLQL [SEQ ID NO:165] | 97 | 103 | 95 | 1095 |  |  |  |  | 
